Experimental data from the NIST ThermoML archive (doi:10.1021/je060200b).
Numbers after ± are expanded uncertainties.

Assay: molar heat capacity at constant pressure; xn = mol fraction of the nth substance listed
Conditions: 101 kPa, Liquid

BrCCCCCBr [1,5-dibromopentane] + CCCCCCC
molar heat capacity at constant pressure [J/K/mol]
Conditions	x1 = 0.1006	x1 = 0.1994	x1 = 0.3003	x1 = 0.4008	x1 = 0.5004	x1 = 0.5999	x1 = 0.6995	x1 = 0.8002	x1 = 0.899	x1 = 1
293.15 K	221.62 ± 1.7	221.15 ± 1.7	221 ± 1.7	220.91 ± 1.7	220.8 ± 1.7	220.5 ± 1.7	220.19 ± 1.7	219.87 ± 1.7	219.89 ± 1.7	219.76 ± 1.7
294.15 K	221.93 ± 1.7	221.54 ± 1.7	221.39 ± 1.7	221.29 ± 1.7	221.14 ± 1.7	220.66 ± 1.7	220.44 ± 1.7	220.16 ± 1.7	220.02 ± 1.7	219.98 ± 1.7
295.15 K	222.35 ± 1.7	221.76 ± 1.7	221.59 ± 1.7	221.6 ± 1.7	221.41 ± 1.7	220.91 ± 1.7	220.59 ± 1.7	220.44 ± 1.7	220.3 ± 1.7	220.19 ± 1.7
296.15 K	222.62 ± 1.7	222.09 ± 1.7	221.89 ± 1.7	221.77 ± 1.7	221.59 ± 1.7	221.3 ± 1.7	220.81 ± 1.7	220.57 ± 1.7	220.61 ± 1.7	220.41 ± 1.7
297.15 K	223.06 ± 1.7	222.53 ± 1.7	222.34 ± 1.7	222.15 ± 1.7	221.87 ± 1.7	221.5 ± 1.7	221.19 ± 1.7	220.89 ± 1.7	220.76 ± 1.7	220.66 ± 1.7
298.15 K	223.39 ± 1.7	222.84 ± 1.7	222.66 ± 1.7	222.48 ± 1.7	222.23 ± 1.7	221.68 ± 1.7	221.42 ± 1.7	221.11 ± 1.7	221.09 ± 1.7	220.84 ± 1.7
299.15 K	223.7 ± 1.7	223.2 ± 1.7	222.87 ± 1.7	222.74 ± 1.7	222.55 ± 1.7	221.91 ± 1.7	221.69 ± 1.7	221.39 ± 1.7	221.32 ± 1.7	221.1 ± 1.7
300.15 K	224.16 ± 1.7	223.42 ± 1.7	223.3 ± 1.7	222.91 ± 1.7	222.69 ± 1.7	222.3 ± 1.7	221.83 ± 1.7	221.48 ± 1.7	221.55 ± 1.7	221.28 ± 1.7
301.15 K	224.39 ± 1.7	223.89 ± 1.7	223.58 ± 1.7	223.33 ± 1.7	223.05 ± 1.7	222.57 ± 1.7	222.17 ± 1.7	221.85 ± 1.7	221.77 ± 1.7	221.49 ± 1.7
302.15 K	224.88 ± 1.7	224.24 ± 1.7	223.78 ± 1.7	223.52 ± 1.7	223.39 ± 1.7	222.87 ± 1.7	222.33 ± 1.7	222.09 ± 1.7	221.93 ± 1.7	221.73 ± 1.7
303.15 K	225.21 ± 1.7	224.57 ± 1.7	224.21 ± 1.7	223.81 ± 1.7	223.49 ± 1.7	223.01 ± 1.7	222.58 ± 1.7	222.36 ± 1.7	222.22 ± 1.7	221.95 ± 1.7
304.15 K	225.49 ± 1.8	224.9 ± 1.7	224.44 ± 1.7	224.26 ± 1.7	223.94 ± 1.7	223.37 ± 1.7	222.93 ± 1.7	222.44 ± 1.7	222.36 ± 1.7	222.17 ± 1.7
305.15 K	225.96 ± 1.8	225.3 ± 1.8	224.89 ± 1.7	224.59 ± 1.7	224.11 ± 1.7	223.63 ± 1.7	223.17 ± 1.7	222.81 ± 1.7	222.72 ± 1.7	222.41 ± 1.7
306.15 K	226.32 ± 1.8	225.5 ± 1.8	225.09 ± 1.7	224.8 ± 1.7	224.39 ± 1.7	223.91 ± 1.7	223.45 ± 1.7	223.05 ± 1.7	222.99 ± 1.7	222.63 ± 1.7
307.15 K	226.59 ± 1.8	225.83 ± 1.8	225.41 ± 1.8	225.15 ± 1.7	224.77 ± 1.7	224.05 ± 1.7	223.72 ± 1.7	223.33 ± 1.7	223.23 ± 1.7	222.85 ± 1.7
308.15 K	227.03 ± 1.8	226.31 ± 1.8	225.84 ± 1.8	225.38 ± 1.8	225.09 ± 1.7	224.36 ± 1.7	223.89 ± 1.7	223.55 ± 1.7	223.34 ± 1.7	223.09 ± 1.7
309.15 K	227.44 ± 1.8	226.66 ± 1.8	226.09 ± 1.8	225.8 ± 1.8	225.27 ± 1.7	224.76 ± 1.7	224.26 ± 1.7	223.77 ± 1.7	223.6 ± 1.7	223.31 ± 1.7
310.15 K	227.81 ± 1.8	226.87 ± 1.8	226.5 ± 1.8	226.12 ± 1.8	225.7 ± 1.8	224.95 ± 1.7	224.52 ± 1.7	224.04 ± 1.7	223.81 ± 1.7	223.56 ± 1.7
311.15 K	228.09 ± 1.8	227.25 ± 1.8	226.85 ± 1.8	226.31 ± 1.8	225.87 ± 1.8	225.3 ± 1.8	224.66 ± 1.7	224.19 ± 1.7	224.19 ± 1.7	223.78 ± 1.7
312.15 K	228.59 ± 1.8	227.7 ± 1.8	227.09 ± 1.8	226.6 ± 1.8	226.24 ± 1.8	225.58 ± 1.8	225.06 ± 1.7	224.56 ± 1.7	224.44 ± 1.7	224.03 ± 1.7
313.15 K	228.91 ± 1.8	228.06 ± 1.8	227.49 ± 1.8	227.05 ± 1.8	226.53 ± 1.8	225.84 ± 1.8	225.31 ± 1.8	224.81 ± 1.7	224.67 ± 1.7	224.26 ± 1.7
